The source of these data is US20250197905A1, “LEGIONAMINIC ACID GLYCOSYLTRANSFERASES FOR CHEMOENZYMATIC SYNTHESIS OF GLYCANS AND GLYCOCONJUGATES” (The Regents of the University of California, priority 2022, published 2025).

Values joined by “and” are separate entries in the source; they are usually repeats but may differ in a detail not shown here. Equal values may be shown once. Where only a bound is given, the exact number is not on record here.

Assay [1] concerns LpCLS or NmCSS, with or without PmAldolase. It is filed as biochemical.
A further assay deals with MBP-AbGtr18-His6. It is filed as biochemical, A. baumannii K8.
The test system of another assay is His6-AbGtr18. It is filed as biochemical, A. baumannii K8.

On to `CC(=O)N[C@@H]1C(O)O[C@H](CO)[C@@H](N=[N+]=[N-])[C@@H]1O` (some centres unmarked) [ManNAc4N3], for which the “CMP-Sia Yield (%)” value in assay [1] is on record as 84.4 ± 1.6%. Besides, in the assay on MBP-AbGtr18-His6, the “Sialoside yield (%) 0.5 h” value came to 50.6 ± 0.5% and the “Sialoside yield (%) 20 h” value worked out at 72.5 ± 0.1%.

Turning to `CC(=O)N[C@H]1[C@H](OCCCNC(=O)OCc2ccccc2)O[C@H](CO)[C@H](O)[C@@H]1O[C@@H]1O[C@H](CO)[C@H](O)[C@H](O)[C@H]1O` [Galβ1-3GalNAcβProNHCbz], in the assay on His6-AbGtr18, the “Activity of His6-AbGtr18 towards acceptor (in words)” value (“Activity” below) is reported as “trace activity” and the “Yield (%) 20 h” value is given as “Trace”.

In the case of `CC(=O)N[C@H]1[C@@H](OCCCNC(=O)OCc2ccccc2)O[C@H](CO)[C@@H](O)[C@@H]1O` [GlcNAcαProNHCbz], in the assay with His6-AbGtr18, the “Activity” value is reported as “much lower efficiencies”, the “Yield (%) 15 min” value worked out at 0.5 ± 0.1% and the “Yield (%) 20 h” value is on record as 20.4 ± 0.1%.

Turning to `O=C(O)C1(O)C[C@H](O)[C@@H](O)[C@H]([C@H](O)[C@H](O)CO)O1` (some centres unmarked) [Kdn], in assay [1], the “CMP-Sia Yield (%)” value is listed as greater than 99%. For the same molecule, in the assay on MBP-AbGtr18-His6, the “Sialoside yield (%) 20 h” value worked out at 9.6 ± 0.1% and the “Suitability as donor substrate for MBP-AbGtr18-His6 (in words)” value (shortened to “Suitability as donor substrate”) is on record as “poor donor substrates”.

As for `CC(=O)N[C@H]1[C@@H](OCCCNC(=O)OCc2ccccc2)O[C@H](CO)[C@H](O)[C@@H]1O[C@@H]1O[C@H](CO)[C@H](O)[C@H](O)[C@H]1O` [Galβ1-3GalNAcαProNHCbz], in the assay with His6-AbGtr18, the “Activity” value is listed as “trace activity” and the “Yield (%) 20 h” value was “Trace^[e]”.

Regarding `O=C(CO)N[C@@H]1C(O)O[C@H](CO)[C@@H](O)[C@@H]1O` (some centres unmarked) [ManNGc], the “CMP-Sia Yield (%)” value in assay [1] was greater than 99%. In addition, in the assay with MBP-AbGtr18-His6, the “Sialoside yield (%) 0.5 h” value was determined as 13 ± 0.4% and the “Sialoside yield (%) 20 h” value was determined as 71.6 ± 2.5%.

As for `[N-]=[N+]=NC1C(O)CC(OP(=O)(O)OCC2OC(n3ccc(N)nc3=O)C(O)C2O)(C(=O)O)OC1C(O)C(O)CO` (centres unmarked) [CMP-Neu5N3], the “Suitability as donor substrate” value in the assay with MBP-AbGtr18-His6 is “poor donor substrates”.

As for `CC(=O)N[C@H]1[C@H](O)[C@H](NC(C)=O)C(O)O[C@@H]1CO` (some centres unmarked) [Man2,4diNAc], the “CMP-Sia Yield (%)” value in assay [1] came to 51.5 ± 0.9%. Further, in the assay with MBP-AbGtr18-His6, the “Sialoside yield (%) 0.5 h” value was determined as 5.5 ± 0.1% and the “Sialoside yield (%) 20 h” value was 30.3 ± 0.3%.

Take `CC(=O)NC[C@H]1OC(O)[C@@H](NC(C)=O)[C@@H](O)[C@@H]1NC(C)=O` (some centres unmarked) [Man2,4,6triNAc]: the “CMP-Sia Yield (%)” value in assay [1] was found to be 24.1 ± 1.1%. In the assay on MBP-AbGtr18-His6, the “Sialoside yield (%) 20 h” value is 2.8 ± 0.1%.

Consider `O=[N+]([O-])c1ccc(O[C@H]2O[C@H](CO)[C@H](O)[C@H](O)[C@H]2O)cc1` [GalαpNP, 4-Nitrophenyl-α-D-galactopyranoside], for which, in the assay on His6-AbGtr18, the “Activity” value is given as “much lower efficiencies” and the “Yield (%) 20 h” value is recorded as 16.7 ± 0.2%.

Regarding `O=C(NCCCO[C@@H]1O[C@H](CO)[C@@H](O[C@@H]2O[C@H](CO)[C@H](O)[C@H](O)[C@H]2O)[C@H](O)[C@H]1O)OCc1ccccc1` [LacβProNHCbz], in the assay with His6-AbGtr18, the “Activity” value is “limited activity” and the “Yield (%) 20 h” value was determined as 13.8 ± 0.2%.

For the molecule `[N-]=[N+]=NCC(O)C(N=[N+]=[N-])C1OC(OP(=O)(O)OCC2OC(n3ccc(N)nc3=O)C(O)C2O)(C(=O)O)CC(O)C1N=[N+]=[N-]` (centres unmarked) [CMP-Neu5,7,9triN3], the “Suitability as donor substrate” value with MBP-AbGtr18-His6 is on record as “limited activity”.

`CC(=O)N[C@@H]([C@H](O)[C@H](NC(C)=O)[C@@H](O)CC(=O)C(=O)O)[C@@H](C)O` [CMP-Leg5,7Ac2, 5,7-diacetamido-3,5,7,9-tetradeoxy-D-glycero-D-galacto-non-2-ulosonic acid]: the “CMP-Sia Yield (%)” value in assay [1] is greater than 99%. In the assay on MBP-AbGtr18-His6, the “Sialoside yield (%) 0.5 h” value is 53.5 ± 0.5% and 56.6 ± 1.6%; the “Sialoside yield (%) 20 h” value was 72.6 ± 0.1% and 99.0 ± 0.6%; the “Suitability as donor substrate” value is reported as “used efficiently”.

As for `CC(=O)N[C@H]1[C@H](OCCCNC(=O)OCc2ccccc2)O[C@H](CO)[C@@H](O)[C@@H]1O` [GlcNAcβProNHCbz], in the assay on His6-AbGtr18, the “Activity” value is recorded as “trace activity” and the “Yield (%) 20 h” value is reported as 1.0 ± 0.1%.

For `[N-]=[N+]=NC1C(O)OC(CO)[C@@H](O)[C@@H]1O` (some centres unmarked) [Man2N3], in assay [1], the “CMP-Sia Yield (%)” value is recorded as 57.6 ± 0.1%. In the assay with MBP-AbGtr18-His6, the “Sialoside yield (%) 20 h” value is “Trace”.

`CC(=O)N[C@H]1[C@@H](OCCCNC(=O)OCc2ccccc2)O[C@H](CO)[C@H](O)[C@@H]1O` [GalNAcαProNHCbz]: in the assay on His6-AbGtr18, the “Activity” value is “lower efficiency”, the “Yield (%) 15 min” value stood at 14.6 ± 1.1% and the “Yield (%) 20 h” value is on record as 82.5 ± 0.6%.

With `CC(=O)N[C@H]1[C@H]([C@H](O)[C@H](O)CN=[N+]=[N-])OC(OP(=O)(O)OC[C@H]2O[C@@H](n3ccc(N)nc3=O)[C@H](O)[C@@H]2O)(C(=O)O)C[C@@H]1O` (some centres unmarked) [CMP-Neu5Ac9N3], the “Suitability as donor substrate” value with MBP-AbGtr18-His6 is on record as “efficient”.

In the case of `Nc1ccn([C@@H]2O[C@H](COP(=O)(O)O[C@@]3(C(=O)O)C[C@H](O)[C@@H](NC(=O)CO)[C@H]([C@H](O)[C@H](O)CO)O3)[C@@H](O)[C@H]2O)c(=O)n1` [CMP-Neu5Gc], the “Suitability as donor substrate” value in the assay on MBP-AbGtr18-His6 is listed as “suitable but less efficient donor substrates”.

As for `CC(=O)N[C@H]1[C@H](OCCCNC(=O)OCc2ccccc2)O[C@H](CO)[C@H](O)[C@@H]1O` [GalNAcβProNHCbz], in the assay on His6-AbGtr18, the “Activity” value was “much lower efficiencies”, the “Yield (%) 15 min” value came out at 1.7 ± 0.2% and the “Yield (%) 20 h” value came to 33.5 ± 0.8%.

Take `[N-]=[N+]=N[C@@H]([C@@H]1OC(OP(=O)(O)OC[C@H]2O[C@@H](n3ccc(N)nc3=O)[C@H](O)[C@@H]2O)(C(=O)O)C[C@H](O)[C@H]1N=[N+]=[N-])[C@H](O)CO` (some centres unmarked) [CMP-Neu5,7diN3]: in the assay with MBP-AbGtr18-His6, the “Suitability as donor substrate” value is reported as “limited activity”.

On to `CC(=O)NC1C(O)CC(OP(=O)(O)OCC2OC(n3ccc(N)nc3=O)C(O)C2O)(C(=O)O)OC1C(N=[N+]=[N-])C(O)CO` (centres unmarked) [CMP-Neu5Ac7N3], for which, in the assay on MBP-AbGtr18-His6, the “Suitability as donor substrate” value is reported as “suitable but less efficient donor substrates”.

On to `CC(=O)N[C@H]1[C@H](OCCCNC(=O)OCc2ccccc2)O[C@H](CO)[C@@H](O)[C@@H]1O[C@@H]1O[C@H](CO)[C@H](O)[C@H](O)[C@H]1O` [Galβ1-3GlcNAcβProNHCbz], for which, in the assay on His6-AbGtr18, the “Activity” value was “much lower efficiencies”, the “Yield (%) 15 min” value is recorded as 0.9 ± 0.1% and the “Yield (%) 20 h” value amounted to 23.9 ± 0.3%.

Regarding `[N-]=[N+]=NCC(=O)N[C@H]1[C@H]([C@H](O)[C@H](O)CO)OC(OP(=O)(O)OC[C@H]2O[C@@H](n3ccc(N)nc3=O)[C@H](O)[C@@H]2O)(C(=O)O)C[C@@H]1O` (some centres unmarked) [CMP-Neu5Az], the “Suitability as donor substrate” value in the assay on MBP-AbGtr18-His6 is given as “efficient”.

Take `CC(=O)N[C@H]1[C@H](OCCCNC(=O)OCc2ccccc2)O[C@H](CO)[C@@H](O[C@@H]2O[C@H](CO)[C@H](O)[C@H](O)[C@H]2O)[C@@H]1O` [LacNAcβProNHCbz]: in the assay with His6-AbGtr18, the “Activity” value is “limited activity” and the “Yield (%) 20 h” value is 7.7 ± 0.1%.

For GalNAcα2AA, in the assay with His6-AbGtr18, the “Activity” value is recorded as “most reactive”, the “Yield (%) 15 min” value came out at 35.7 ± 2.2% and the “Yield (%) 20 h” value worked out at 78.1 ± 0.6%.

Turning to `O=[N+]([O-])c1ccc(O[C@@H]2O[C@H](CO)[C@H](O)[C@H](O)[C@H]2O)cc1` [GalβpNP, 4-nitrophenyl β-D-galactopyranoside], in the assay with His6-AbGtr18, the “Activity” value is recorded as “trace activity” and the “Yield (%) 20 h” value was 1.6 ± 0.1%.
